From US8680096B2, “Diphenyl-pyrazolopyridine derivatives, preparation thereof, and use thereof as nuclear receptor not modulators” (Sanofi-Aventis, priority 2009, dated 2014)

Key:
[1] = biological target: T1, murine Nurr1 receptor (Mus musculus, UniProt Q06219); test: In vitro activity on N2A cells (8NBRE-luciferase reporter); assay type: cell-based; conditions: N2A cells endogenously expressing Nurr1, stably transfected with 8NBRE-luciferase; 24 hours incubation
T1 construct: a cell line (N2A) endogenously expressing the murine Nurr1 receptor; host or cells: Neuro-2A (N2A) mouse neuroblastoma cells stably transfected with 8NBRE-luciferase
Procedure: Evaluation of the In Vitro Activity on N2A Cells
The activity of the compounds according to the invention was evaluated on a cell line (N2A) endogenously expressing the murine Nurr1 receptor and stably transfected with the NOT binding response element (NBRE) coupled to the luciferase reporter gene. The tests were performed according to the procedure described hereinbelow.
The cell line Neuro-2A is obtained from a standard commercial source (ATCC). The clone Neuro-2A was obtained from a spontaneous tumour originating from a strain of albino mice A by R. J Klebe et al. This line Neuro-2A is then stably transfected with 8NBRE-luciferase. The N2A-8NBRE cells are cultured to the point of confluence in 75 cm^2 culture flasks containing DMEM supplemented with 10% foetal calf serum, 4.5 g/L of glucose and 0.4 mg/ml of geneticin. After culturing for one week, the cells are recovered with 0.25% trypsin for 30 seconds and then resuspended in DMEM without phenol red, containing 4.5 g/L of glucose and 10% Hyclone defatted serum, and placed in white, transparent-base 96-well plates. The cells are deposited at a rate of 60 000 per well in 75 4, for 24 hours before adding the products. The products are applied in 25 4 and incubated for a further 24 hours. On the day of measurement, an equivalent volume (100 4) of Steadylite is added to each well, and the wells are then left for 30 minutes to obtain complete lysis of the cells and maximum production of the signal. The plates are then measured in a microplate luminescence counter, after having been sealed with an adhesive film. The products are prepared in the form of a 10^−2 M stock solution, and then diluted in 100% of DMSO. Each concentration of product is prediluted in culture medium before incubation with the cells thus containing 0.625% final of DMSO.

T1 sequence (Q06219 whole entry): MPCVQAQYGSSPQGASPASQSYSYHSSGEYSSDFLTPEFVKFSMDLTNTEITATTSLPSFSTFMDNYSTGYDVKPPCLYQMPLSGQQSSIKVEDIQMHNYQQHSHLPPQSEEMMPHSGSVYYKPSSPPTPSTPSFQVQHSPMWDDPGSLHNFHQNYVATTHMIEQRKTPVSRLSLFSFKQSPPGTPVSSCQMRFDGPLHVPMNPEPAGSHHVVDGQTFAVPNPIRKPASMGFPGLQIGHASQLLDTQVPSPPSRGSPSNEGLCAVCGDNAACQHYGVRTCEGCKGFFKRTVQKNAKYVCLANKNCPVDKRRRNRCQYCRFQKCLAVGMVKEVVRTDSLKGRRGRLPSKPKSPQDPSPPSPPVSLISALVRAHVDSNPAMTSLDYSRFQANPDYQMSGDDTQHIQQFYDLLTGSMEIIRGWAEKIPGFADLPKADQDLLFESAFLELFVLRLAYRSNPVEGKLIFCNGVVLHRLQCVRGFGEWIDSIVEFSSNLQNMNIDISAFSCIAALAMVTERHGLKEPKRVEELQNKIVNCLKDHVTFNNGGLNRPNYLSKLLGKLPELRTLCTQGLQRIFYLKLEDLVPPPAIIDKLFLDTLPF

CNC(=O)c1cccc(-c2ccn3nc(-c4ccc(C#N)cc4)cc3c2)c1 [Compound 31, 3-[2-(4-Cyanophenyl)pyrazolo[1,5-a]pyridin-5-yl]-N-methylbenzamide]
melting point: 252 to 254 °C

CNC(=O)c1cccc(-c2ccn3nc(-c4ccc(F)cc4F)cc3c2)c1 [Compound 23, 3-[2-(2,4-Difluorophenyl)pyrazolo[1,5-a]pyridin-5-yl]-N-methylbenzamide]
melting point: 210 to 212 °C

CNC(=O)c1cccc(-c2ccn3nc(-c4cc(F)cc(F)c4)cc3c2)c1 [Compound 26]
EC50 [1]: 1.3 nM
melting point: 230 to 232 °C

CNC(=O)c1ccc(-c2ccn3nc(-c4ccc(F)cc4)cc3c2)cc1F [Compound 14, 2-Fluoro-4-[2-(4-fluorophenyl)pyrazolo[1,5-c]pyridin-5-yl]-N-methylbenzamide]
EC50 [1]: 125 nM
melting point: 227 to 229 °C

O=C(c1cccc(-c2ccn3nc(-c4ccc(F)cc4)cc3c2)c1)N1CCC(O)C1 (centres unmarked) [Compound 22, {3-[2-(4-Fluorophenyl)pyrazolo[1,5-a]pyridin-5-yl]phenyl}-(3-hydroxy-pyrrolidin-1-yl)methanone]
melting point: 173 to 175 °C

CNC(=O)c1cccc(-c2ccn3nc(-c4ccccc4C)cc3c2)c1 [Compound 33, N-Methyl-3-(2-o-tolylpyrazolo[1,5-a]pyridin-5-yl)benzamide]
melting point: 129 to 131 °C

CNC(=O)c1ccc(Cl)c(-c2ccn3nc(-c4ccc(F)cc4)cc3c2)c1 [Compound 12, 4-Chloro-3-[2-(4-fluorophenyl)pyrazolo[1,5-a]pyridin-5-yl]-N-methylbenzamide]
melting point: 188 to 190 °C

NC(=O)c1cccc(-c2ccn3nc(-c4ccc(Cl)cc4)cc3c2)c1 [Compound 2, 3-[2-(4-Chlorophenyl)pyrazolo[1,5-a]pyridin-5-yl]benzamide]
EC50 [1]: 45 nM
melting point: 283 to 285 °C

COC(=O)c1cccc(-c2ccn3nc(-c4ccc(F)cc4)cc3c2)c1 [Compound 5, Methyl 3-[2-(4-fluorophenyl)pyrazolo[1,5-a]pyridin-5-yl]benzoate]
melting point: 162 to 164 °C

CNC(=O)c1cccc(-c2ccn3nc(-c4ccccc4F)cc3c2)c1 [Compound 18, 3-[2-(2-Fluorophenyl)pyrazolo[1,5-a]pyridin-5-yl]-N-methylbenzamide]
melting point: 195 to 197 °C

CNC(=O)c1cccc(-c2ccn3nc(-c4cccc(F)c4)cc3c2)c1 [Compound 27, 3-[2-(3-Fluorophenyl)pyrazolo[1,5-a]pyridin-5-yl]-N-methylbenzamide]
melting point: 204 to 206 °C

CNC(=O)c1cccc(-c2ccn3nc(-c4ccc(F)cc4)c(Cl)c3c2)c1 [Compound 34, 3-[3-Chloro-2-(4-fluorophenyl)pyrazolo[1,5-a]pyridin-5-yl]-N-methyl-benzamide]
melting point: 221 to 223 °C

CN(C)C(=O)c1cccc(-c2ccn3nc(-c4ccc(Cl)cc4)cc3c2)c1 [Compound 3, 3-[2-(4-Chlorophenyl)pyrazolo[1,5-a]pyridin-5-yl]-N,N-dimethyl-benzamide]
melting point: 175 to 177 °C

CNC(=O)c1cc(-c2ccn3nc(-c4ccc(F)cc4)cc3c2)ccc1Cl [Compound 11, 2-Chloro-5-[2-(4-fluorophenyl)pyrazolo[1,5-a]pyridin-5-yl]-N-methylbenzamide]
melting point: 243 to 245 °C

CNC(=O)c1cccc(-c2ccn3nc(-c4ccc(F)cc4)cc3c2)c1C [Compound 10, 3-[2-(4-Fluorophenyl)pyrazolo[1,5-a]pyridin-5-yl]-2,N-dimethylbenzamide]
EC50 [1]: 6.6 nM

CNC(=O)c1cccc(-c2ccn3nc(-c4ccc(C)cc4)cc3c2)c1 [Compound 28, N-Methyl-3-(2-p-tolylpyrazolo[1,5-a]pyridin-5-yl)benzamide]
melting point: 204 to 206 °C

CNC(=O)c1cccc(-c2ccn3nc(-c4ccc(OC)cc4)cc3c2)c1 [Compound 29, 3-[2-(4-Methoxyphenyl)pyrazolo[1,5-a]pyridin-5-yl]-N-methylbenzamide]
melting point: 211 to 213 °C

CNC(=O)c1cccc(-c2ccn3nc(-c4ccc(C(F)(F)F)cc4)cc3c2)c1 [Compound 19, N-Methyl-3-[2-(4-trifluoromethylphenyl)pyrazolo[1,5-a]pyridin-5-yl]benzamide]
melting point: 220 to 222 °C

CNC(=O)c1ccc(C)c(-c2ccn3nc(-c4ccc(F)cc4)cc3c2)c1 [Compound 13, 3-[2-(4-Fluorophenyl)pyrazolo[1,5-a]pyridin-5-yl]-4,N-dimethylbenzamide]
melting point: 185 to 187 °C

O=C(NC1CC1)c1cccc(-c2ccn3nc(-c4ccc(F)cc4)cc3c2)c1 [Compound 15, N-Cyclopropyl-3-[2-(4-fluorophenyl)pyrazolo[1,5-a]pyridin-5-yl]-benzamide]
melting point: 179 to 181 °C

COC(=O)c1cccc(-c2ccn3nc(-c4ccc(Cl)cc4)cc3c2)c1 [Compound 1, Methyl 3-[2-(4-chlorophenyl)pyrazolo[1,5-a]pyridin-5-yl]benzoate]
melting point: 180 to 182 °C

CNC(=O)c1cccc(-c2ccn3nc(-c4cccc(F)c4F)cc3c2)c1 [Compound 32, 3-[2-(2,3-Difluorophenyl)pyrazolo[1,5-a]pyridin-5-yl]-N-methylbenzamide]
melting point: 214 to 216 °C

O=C(c1cccc(-c2ccn3nc(-c4ccc(F)cc4)cc3c2)c1)N1CCCC1 [Compound 16, {3-[2-(4-Fluorophenyl)pyrazolo[1,5-c]pyridin-5-yl]phenyl}pyrrolidin-1-ylmethanone]
EC50 [1]: 326 nM
melting point: 164 to 166 °C

CNC(=O)c1cccc(-c2ccn3nc(-c4ccc(Cl)cc4)cc3c2)c1 [Compound 4, 3-[2-(4-Chlorophenyl)pyrazolo[1,5-a]pyridin-5-yl]-N-methylbenzamide]
EC50 [1]: 2 nM
melting point: 234 to 236 °C

CNC(=O)c1cccc(-c2ccn3nc(-c4ccc(F)cc4)cc3c2)c1 [Compound 6, 3-[2-(4-Fluorophenyl)pyrazolo[1,5-a]pyridin-5-yl]-N-methylbenzamide]
melting point: 214 to 216 °C

CC(C)NC(=O)c1cccc(-c2ccn3nc(-c4ccc(F)cc4)cc3c2)c1 [Compound 7, 3-[2-(4-Fluorophenyl)pyrazolo[1,5-a]pyridin-5-yl]-N-isopropylbenzamide]
melting point: 210 to 212 °C

CNC(=O)c1ccc(-c2ccn3nc(-c4ccc(F)cc4)cc3c2)cc1 [Compound 20, 4-[2-(4-Fluorophenyl)pyrazolo[1,5-a]pyridin-5-yl]-N-methylbenzamide]
melting point: 264 to 266 °C
